Assay results published in ChEMBL document CHEMBL5230142, “Natural spirocyclic alkaloids and polyphenols as multi target dementia leads” (Bioorg Med Chem, 2021).

Columns and labels:
Beta-secretase 1 = Beta-secretase 1 (Homo sapiens, UniProt P56817); test: Inhibition of human BACE1 (1 to 454 residues) using APP harboring Swedish Lys/Met mutant-derived peptide as substrate by FRET assay
[1] = target: T1, Melatonin receptor type 1B (Homo sapiens, UniProt P49286); test: Agonist activity at human melatonin MT2 receptor stably expressing in human HEK293 cells; type: cell-based
T1 sequence (P49286 whole entry): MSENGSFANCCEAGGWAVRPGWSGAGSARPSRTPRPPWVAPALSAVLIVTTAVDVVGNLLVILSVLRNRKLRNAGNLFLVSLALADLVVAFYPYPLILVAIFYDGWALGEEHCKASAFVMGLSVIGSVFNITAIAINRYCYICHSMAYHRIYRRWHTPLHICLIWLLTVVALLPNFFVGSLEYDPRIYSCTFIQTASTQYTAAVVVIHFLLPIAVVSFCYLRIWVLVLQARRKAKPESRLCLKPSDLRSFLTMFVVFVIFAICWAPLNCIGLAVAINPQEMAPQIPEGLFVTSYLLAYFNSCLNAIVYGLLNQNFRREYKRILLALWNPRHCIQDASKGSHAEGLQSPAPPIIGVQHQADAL

[2] = target: Melatonin receptor type 1A (Homo sapiens, UniProt P48039); test: Agonist activity at human melatonin MT1 receptor stably expressing in human HEK293 cells; type: cell-based
Melatonin receptor type 1A, sequence (P48039 whole entry): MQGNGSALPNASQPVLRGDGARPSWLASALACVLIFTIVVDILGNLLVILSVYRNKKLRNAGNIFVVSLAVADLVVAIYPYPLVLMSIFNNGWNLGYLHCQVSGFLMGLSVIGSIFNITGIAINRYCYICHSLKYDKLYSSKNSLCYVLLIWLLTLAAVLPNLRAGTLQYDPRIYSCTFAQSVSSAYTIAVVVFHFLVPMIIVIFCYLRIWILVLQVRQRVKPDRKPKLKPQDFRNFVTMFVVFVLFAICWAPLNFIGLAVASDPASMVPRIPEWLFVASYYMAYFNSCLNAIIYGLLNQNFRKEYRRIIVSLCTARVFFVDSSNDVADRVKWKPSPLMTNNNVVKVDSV

[3] = target: Amyloid-beta precursor protein (Homo sapiens) (UniProt P05067); test: Inhibition of amyloid beta (unknown origin) fibril formation at 20 uM incubated for 7 days by ThT fluorescence assay relative to control; conditions: time 7.0 day
Amyloid-beta precursor protein (Homo sapiens), sequence (P05067 whole entry): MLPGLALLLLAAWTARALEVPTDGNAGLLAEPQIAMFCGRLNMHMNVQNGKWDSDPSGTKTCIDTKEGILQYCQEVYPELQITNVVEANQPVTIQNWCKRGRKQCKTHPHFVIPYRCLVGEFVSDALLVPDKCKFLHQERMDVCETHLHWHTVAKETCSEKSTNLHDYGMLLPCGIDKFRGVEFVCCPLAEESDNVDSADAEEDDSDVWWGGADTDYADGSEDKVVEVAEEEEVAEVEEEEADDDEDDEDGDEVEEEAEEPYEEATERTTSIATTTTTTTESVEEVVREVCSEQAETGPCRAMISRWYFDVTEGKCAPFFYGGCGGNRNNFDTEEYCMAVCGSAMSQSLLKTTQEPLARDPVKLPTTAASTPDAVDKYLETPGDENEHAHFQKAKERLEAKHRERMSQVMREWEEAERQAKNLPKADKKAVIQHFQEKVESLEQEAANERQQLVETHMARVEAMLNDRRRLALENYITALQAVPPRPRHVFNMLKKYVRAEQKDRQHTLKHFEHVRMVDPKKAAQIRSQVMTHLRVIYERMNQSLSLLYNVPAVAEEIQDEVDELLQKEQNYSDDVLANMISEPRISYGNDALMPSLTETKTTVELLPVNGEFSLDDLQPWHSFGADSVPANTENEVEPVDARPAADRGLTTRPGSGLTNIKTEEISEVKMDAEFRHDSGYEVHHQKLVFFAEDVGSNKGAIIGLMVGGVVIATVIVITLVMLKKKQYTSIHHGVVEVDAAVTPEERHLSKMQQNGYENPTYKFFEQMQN

[4] = target: Amyloid-beta precursor protein (Homo sapiens) (UniProt P05067); test: Inhibition of amyloid beta (unknown origin) assessed as reduction in fibril disaggregation at 20 uM incubated for 7 days by ThT fluorescence assay relative to control; conditions: time 7.0 day
[5] = Cmax in mouse plasma at 250 mg/kg, po measured after 24 hrs; type: ADME, organism-based; set-up: dose 250 mg/kg, time 24 hrs, route po
[6] = target: Amyloid-beta precursor protein (Homo sapiens) (UniProt P05067); test: Inhibition of amyloid beta (unknown origin) at 10 uM relative to control
[7] = target: Gamma-secretase (Homo sapiens) (UniProt Q96BI3+Q9NZ42+Q8WW43+P49768+Q92542+P49810); test: Binding affinity to his-tagged gamma-secretase (unknown origin) assessed as equilibrium constant by surface plasmon resonance analysis; type: protein-complex assay
Gamma-secretase = test: Inhibition of gamma-secretase (unknown origin); type: protein-complex assay, Homo sapiens
Acetylcholinesterase [8] = target: T2, Acetylcholinesterase (Homo sapiens, UniProt P22303); test: Inhibition of AChE (unknown origin) using acetylthiocholine iodide as substrate preincubated for 20 mins by DTNB reagent based Ellman's method
T2 sequence (P22303 whole entry): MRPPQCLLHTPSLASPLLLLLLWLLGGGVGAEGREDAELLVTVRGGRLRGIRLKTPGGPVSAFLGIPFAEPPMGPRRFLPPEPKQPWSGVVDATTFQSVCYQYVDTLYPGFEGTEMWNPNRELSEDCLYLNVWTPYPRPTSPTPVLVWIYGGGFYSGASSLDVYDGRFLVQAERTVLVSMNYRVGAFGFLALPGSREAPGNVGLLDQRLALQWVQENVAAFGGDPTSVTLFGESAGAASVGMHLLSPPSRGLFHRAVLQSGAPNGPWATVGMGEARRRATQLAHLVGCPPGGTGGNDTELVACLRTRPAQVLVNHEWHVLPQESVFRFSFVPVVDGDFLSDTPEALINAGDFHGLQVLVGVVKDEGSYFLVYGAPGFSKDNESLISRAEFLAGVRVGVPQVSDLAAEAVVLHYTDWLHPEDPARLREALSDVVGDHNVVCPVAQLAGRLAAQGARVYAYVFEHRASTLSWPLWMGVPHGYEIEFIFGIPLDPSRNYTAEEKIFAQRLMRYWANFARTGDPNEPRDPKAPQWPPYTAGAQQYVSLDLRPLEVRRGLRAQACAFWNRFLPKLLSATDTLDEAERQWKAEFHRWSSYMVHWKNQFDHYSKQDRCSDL

Acetylcholinesterase [9] = target: T2, Acetylcholinesterase; test: Inhibition of human recombinant AChE using acetylthiocholine chloride as substrate incubated for 20 mins by DTNB reagent based Ellman's method
SH-SY5Y [10] = test: Neuroprotective activity in human SH-SY5Y cells assessed as prevention of glyceraldehyde-induced neurite shortening at 10 uM incubated for 72 hrs by microsocopic analysis; type: functional
[11] = target: T3, 5-hydroxytryptamine receptor 1A (Homo sapiens, UniProt P08908); test: Agonist activity at 5HT1A (unknown origin) receptor
T3 sequence (P08908 whole entry): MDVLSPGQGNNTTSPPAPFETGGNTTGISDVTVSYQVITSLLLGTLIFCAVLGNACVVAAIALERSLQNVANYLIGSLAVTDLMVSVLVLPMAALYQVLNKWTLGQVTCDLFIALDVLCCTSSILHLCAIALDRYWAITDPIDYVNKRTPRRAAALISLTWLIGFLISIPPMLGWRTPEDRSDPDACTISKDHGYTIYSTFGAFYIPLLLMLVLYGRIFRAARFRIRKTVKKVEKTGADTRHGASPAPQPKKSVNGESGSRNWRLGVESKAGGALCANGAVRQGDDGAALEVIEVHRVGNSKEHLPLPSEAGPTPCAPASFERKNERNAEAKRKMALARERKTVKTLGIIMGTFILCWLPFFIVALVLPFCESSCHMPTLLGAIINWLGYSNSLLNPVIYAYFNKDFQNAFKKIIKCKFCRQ

[12] = Oral bioavailability in RN rat at 20 mg/kg; type: ADME, organism-based; conditions: in vivo
[13] = Drug metabolism in RN rat assessed as epimerization ratio at 20 mg/kg, po; type: ADME, organism-based; conditions: in vivo, read-out: Drug metabolism
SH-SY5Y [14] = test: Neuroprotective activity in human SH-SY5Y cells assessed as prevention of glyceraldehyde-induced neurite shortening at 1 uM incubated for 72 hrs by microsocopic analysis; type: functional
VSMC [15] = test: Cytotoxicity against rat VSMC cells assessed as reduction in cell viability at 5 uM measured after 4 days; type: toxicity, cell-based; conditions: 96 h, time 4 day
VSMC [16] = test: Cytotoxicity against rat VSMC cells assessed as reduction in cell viability at 20 uM measured after 4 days; type: toxicity, cell-based; conditions: 96 h, time 4 day
VSMC [17] = test: Cytotoxicity against rat VSMC cells assessed as reduction in cell viability at 50 uM measured after 4 days; type: toxicity, cell-based; conditions: 96 h, time 4 day

Beta-secretase 1, sequence (P56817 whole entry, the tested form may be a part): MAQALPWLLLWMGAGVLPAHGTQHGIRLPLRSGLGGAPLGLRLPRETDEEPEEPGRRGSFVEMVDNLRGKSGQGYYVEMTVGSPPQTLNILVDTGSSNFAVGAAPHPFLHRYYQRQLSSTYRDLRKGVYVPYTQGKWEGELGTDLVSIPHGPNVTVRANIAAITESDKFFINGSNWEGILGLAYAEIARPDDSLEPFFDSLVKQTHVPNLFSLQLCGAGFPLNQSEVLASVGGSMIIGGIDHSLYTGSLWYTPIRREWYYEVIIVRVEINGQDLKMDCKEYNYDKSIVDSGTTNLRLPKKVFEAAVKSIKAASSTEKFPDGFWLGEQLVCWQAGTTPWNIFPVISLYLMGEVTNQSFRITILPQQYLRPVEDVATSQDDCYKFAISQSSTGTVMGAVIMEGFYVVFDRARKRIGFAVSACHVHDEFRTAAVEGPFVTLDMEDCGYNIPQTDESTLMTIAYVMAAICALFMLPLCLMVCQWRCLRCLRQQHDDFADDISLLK

## CC#Cc1cncc(-c2ccc3c(c2)[C@@]2(CO3)N=C(N)C[C@H]2C(F)(F)F)c1
Beta-secretase 1
  IC50: 0.115 µM

## Oc1cc(O)c2c(c1)O[C@H](c1ccc(O)c(O)c1)[C@@H](O)C2 [CIANIDANOL]
[1]
  IC50: 47.3 µM
[2]
  IC50: 25.8 µM

## Oc1cc(O)c2c(c1)O[C@H](c1ccc(O)c(O)c1)[C@H](O)[C@H]2c1c(O)cc(O)c2c1O[C@H](c1ccc(O)c(O)c1)[C@H](O)C2 [PROCYANIDIN B2]
[3]
  inhibition: 94%
[4]
  inhibition: 63%
[5]
  Cmax: 160 nM

## CC(C)[C@@]1(NC(=O)[C@@H]2C[C@@H]3c4cccc5[nH]cc(c45)C[C@H]3N(C)C2)O[C@@]2(O)[C@@H]3CCCN3C(=O)[C@H](Cc3ccccc3)N2C1=O [DIHYDROERGOCRISTINE]
[6]
  inhibition: 30%
[7]
  Ke: 9.8 µM
Gamma-secretase
  IC50: 25 µM

## C/C=C1/CN2CCc3c([nH]c4ccccc34)[C@@H]2CC1/C(=C\C(=O)OC)OC (stereo partly drawn)
Acetylcholinesterase [8]
  IC50: 3.7 µM
Acetylcholinesterase [9]
  IC50: 10.1 µM

## COC(=O)[C@@H]1C(=O)N2CC[C@@]3(C(=O)Nc4ccccc43)[C@@H]2C[C@H]1c1ccc(-c2ccc(Cl)c(Cl)c2)o1
SH-SY5Y [10]
  Activity: 61%

## COC(=O)[C@H]1C(=O)N2CC[C@]3(C(=O)Nc4ccccc43)[C@H]2C[C@@H]1c1ccc(-c2cccc(Cl)c2)o1
SH-SY5Y [10]
  Activity: 47%

## CC[C@H]1CN2CC[C@]3(C(=O)Nc4ccccc43)[C@@H]2C[C@@H]1/C(=C\OC)C(=O)OC [RHYNCHOPHYLLINE]
[11]
  EC50: 45.3 µM
[12]
  bioavailability: 25.9%
[13]
  metabolised: 22%

## COC(=O)[C@@H]1C(=O)N2CC[C@@]3(C(=O)Nc4ccccc43)[C@@H]2C[C@H]1c1ccc(-c2cccc(Cl)c2)o1
SH-SY5Y [10]
  Activity: 20%

## COC(=O)[C@H]1C(=O)N2CC[C@]3(C(=O)Nc4ccccc43)[C@H]2C[C@@H]1c1ccc(-c2ccc(Cl)c(Cl)c2)o1
SH-SY5Y [14]
  Activity: 42%

## CC[C@H]1CN2CC[C@]3(C(=O)Nc4ccccc43)C2C[C@@H]1/C(=C\OC)C(=O)OC (stereo partly drawn)
VSMC [15]
  Activity: 25%
VSMC [16]
  Activity: 63%
VSMC [17]
  Activity: 88%

## CC[C@H]1CN2CC[C@@]3(C(=O)Nc4ccccc43)[C@@H]2C[C@@H]1/C(=C\OC)C(=O)OC [ISORHYNCHOPHYLLINE]
[12]
  bioavailability: 3.3%
[13]
  metabolised: 22%
